Tests used:
Assay in all cases: cells
COLO-792 = format: functional, cell-based, Homo sapiens; conditions: Homo sapiens, COLO-792
Description: SANGER: Inhibition of human COLO-792 cell growth in a cell viability assay.

CP50-MEL-B = format: functional, cell-based, Homo sapiens; conditions: Homo sapiens, CP50-MEL-B;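 note: growth inhibition of the human cell line, measured with a cell viability read-out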
Description: SANGER: Inhibition of human CP50-MEL-B cell growth in a cell viability assay.

CW-2 = format: functional, cell-based, Homo sapiens; conditions: Homo sapiens, CW-2;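 note: growth inhibition of CW-2 cells, read out by a cell viability assay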
Description: SANGER: Inhibition of human CW-2 cell growth in a cell viability assay.

Ca-Ski = format: functional, cell-based; conditions: Homo sapiens;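 note: cell viability assay measuring inhibition of Ca-Ski cell growth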
Description: SANGER: Inhibition of human Ca-Ski cell growth in a cell viability assay.

Calu-6 = format: functional, cell-based, Homo sapiens; conditions: Homo sapiens, Calu-6;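 note: growth of human Calu-6 cells, read out by a cell viability assay, IC50 marking inhibition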
Description: SANGER: Inhibition of human Calu-6 cell growth in a cell viability assay.

Capan-2 = format: functional, cell-based, Homo sapiens; conditions: Homo sapiens, Capan-2;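 note: Capan-2 cell growth inhibition, read out with a viability assay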
Description: SANGER: Inhibition of human Capan-2 cell growth in a cell viability assay.

DOHH-2 = format: functional, cell-based; conditions: Homo sapiens;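 note: growth inhibition of human DOHH-2 cells, read out with a cell viability assay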
Description: SANGER: Inhibition of human DOHH-2 cell growth in a cell viability assay.

Detroit 562 = format: functional, cell-based, Homo sapiens; conditions: Homo sapiens, Detroit 562;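 note: growth inhibition of human Detroit 562 cells, read out by a cell viability assay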
Description: SANGER: Inhibition of human Detroit562 cell growth in a cell viability assay.

EW-24 = format: functional, cell-based; conditions: Homo sapiens;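 note: human EW-24 cancer cell line, growth inhibition read out via a cell viability assay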
Description: SANGER: Inhibition of human EW-24 cell growth in a cell viability assay.

HCC1569 = format: functional, cell-based, Homo sapiens; conditions: Homo sapiens, HCC1569;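 note: growth inhibition of human HCC1569 cells, read out with a cell viability assay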
Description: SANGER: Inhibition of human HCC1569 cell growth in a cell viability assay.

HCC2218 = format: functional, cell-based; conditions: Homo sapiens;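 note: cell viability assay read-out, with IC50 given as the concentration that inhibits growth of the cell line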
Description: SANGER: Inhibition of human HCC2218 cell growth in a cell viability assay.

HCC 2998 = format: functional, cell-based, Homo sapiens; conditions: Homo sapiens, HCC 2998;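 note: growth inhibition of human HCC2998 cells, measured with a cell viability read-out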
Description: SANGER: Inhibition of human HCC2998 cell growth in a cell viability assay.

HD-MY-Z = format: functional, cell-based, Homo sapiens; conditions: Homo sapiens, HD-MY-Z;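 note: growth inhibition of HD-MY-Z cells, read out with a cell viability assay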
Description: SANGER: Inhibition of human HD-MY-Z cell growth in a cell viability assay.

HO-1-N-1 = format: functional, cell-based, Homo sapiens; conditions: Homo sapiens, HO-1-N-1;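 note: growth inhibition of human HO-1-N-1 cells, read out with a cell viability assay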
Description: SANGER: Inhibition of human HO-1-N-1 cell growth in a cell viability assay.

HOP-62 = format: functional, cell-based, Homo sapiens; conditions: Homo sapiens, HOP-62;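 note: cell growth inhibition determined with a viability assay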
Description: SANGER: Inhibition of human HOP-62 cell growth in a cell viability assay.

HT-1080 = format: functional, cell-based, Homo sapiens; conditions: Homo sapiens, HT-1080
Description: SANGER: Inhibition of human HT-1080 cell growth in a cell viability assay.

IGROV-1 = format: functional, cell-based, Homo sapiens; conditions: Homo sapiens, IGROV-1;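 note: reduction of IGROV-1 cell growth, read out with a viability assay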
Description: SANGER: Inhibition of human IGROV-1 cell growth in a cell viability assay.

IST-SL1 = format: functional, cell-based, Homo sapiens; conditions: Homo sapiens, IST-SL1;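 note: growth inhibition of human IST-SL1 cells, read out with a cell viability assay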
Description: SANGER: Inhibition of human IST-SL1 cell growth in a cell viability assay.

JAR = format: functional, cell-based, Homo sapiens; conditions: Homo sapiens, JAR;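 note: growth inhibition of human JAR cells determined with a cell viability assay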
Description: SANGER: Inhibition of human JAR cell growth in a cell viability assay.

KALS-1 = format: functional, cell-based, Homo sapiens; conditions: Homo sapiens, KALS-1;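 note: growth inhibition of KALS-1 cells, determined with a cell viability assay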
Description: SANGER: Inhibition of human KALS-1 cell growth in a cell viability assay.

KINGS-1 = format: functional, cell-based, Homo sapiens; conditions: Homo sapiens, KINGS-1;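 note: cell viability assay measuring suppression of KINGS-1 cell growth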
Description: SANGER: Inhibition of human KINGS-1 cell growth in a cell viability assay.

KS-1 = format: functional, cell-based, Homo sapiens; conditions: Homo sapiens, KS-1;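 note: growth inhibition of KS-1 cells, read out with a cell viability assay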
Description: SANGER: Inhibition of human KS-1 cell growth in a cell viability assay.

KYSE-510 = format: functional, cell-based, Homo sapiens; conditions: Homo sapiens, KYSE-510;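 note: cell viability readout used to measure how strongly growth of the cell line is suppressed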
Description: SANGER: Inhibition of human KYSE-510 cell growth in a cell viability assay.

LB2518-MEL = format: functional, cell-based, Homo sapiens; conditions: Homo sapiens, LB2518-MEL;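 note: growth inhibition of human LB2518-MEL cells, measured with a cell viability assay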
Description: SANGER: Inhibition of human LB2518-MEL cell growth in a cell viability assay.

LS-411N = format: functional, cell-based, Homo sapiens; conditions: Homo sapiens, LS-411N
LXF-289 cell line = format: functional, cell-based, Homo sapiens; conditions: Homo sapiens, LXF-289
Description: SANGER: Inhibition of human LXF-289 cell growth in a cell viability assay.

MLMA = format: functional, cell-based, Homo sapiens; conditions: Homo sapiens, MLMA;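 note: growth inhibition of MLMA cells (human), determined through a cell viability readout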
Description: SANGER: Inhibition of human MLMA cell growth in a cell viability assay.

MZ7-mel = format: functional, cell-based, Homo sapiens; conditions: Homo sapiens, MZ7-mel;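 note: growth inhibition of human MZ7-mel cells, measured by a cell viability assay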
Description: SANGER: Inhibition of human MZ7-mel cell growth in a cell viability assay.

Mo = format: functional, cell-based; conditions: Homo sapiens
Description: SANGER: Inhibition of human Mo-T cell growth in a cell viability assay.

NCI-H1395 = format: functional, cell-based, Homo sapiens; conditions: Homo sapiens, NCI-H1395;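 note: cell viability assay read-out quantifying reduced proliferation of human NCI-H1395 cells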
Description: SANGER: Inhibition of human NCI-H1395 cell growth in a cell viability assay.

NCI-H1623 = format: functional, cell-based, Homo sapiens; conditions: Homo sapiens, NCI-H1623;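 note: cell viability assay used as the read-out for growth inhibition of NCI-H1623 cells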
Description: SANGER: Inhibition of human NCI-H1623 cell growth in a cell viability assay.

NCI-H1651 = format: functional, cell-based, Homo sapiens; conditions: Homo sapiens, NCI-H1651;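 note: Read-out is a cell viability assay, with IC50 expressing inhibition of NCI-H1651 cell growth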
Description: SANGER: Inhibition of human NCI-H1651 cell growth in a cell viability assay.

NCI-H2126 = format: functional, cell-based, Homo sapiens; conditions: Homo sapiens, NCI-H2126;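 note: growth inhibition of the cancer cell line, determined with a cell viability readout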
Description: SANGER: Inhibition of human NCI-H2126 cell growth in a cell viability assay.

NCI-H661 = format: functional, cell-based, Homo sapiens; conditions: Homo sapiens, NCI-H661;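 note: cell viability assay read-out, IC50 being the concentration that inhibits growth of the cells by half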
Description: SANGER: Inhibition of human NCI-H661 cell growth in a cell viability assay.

SNU-5 = format: functional, cell-based; conditions: Homo sapiens;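 note: cell viability readout used to measure growth inhibition in human NCI-SNU-5 cells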
Description: SANGER: Inhibition of human NCI-SNU-5 cell growth in a cell viability assay.

OE19 = format: functional, cell-based, Homo sapiens; conditions: Homo sapiens, OE19;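 note: growth inhibition of OE19 cells, measured through a cell viability read-out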
Description: SANGER: Inhibition of human OE19 cell growth in a cell viability assay.

PC-3 = format: functional, cell-based, Homo sapiens; conditions: Homo sapiens, PC-3;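 note: cell viability assay measuring growth inhibition of PC-3 cells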
Description: SANGER: Inhibition of human PC-3 cell growth in a cell viability assay.

RCM-1 = format: functional, cell-based, Homo sapiens; conditions: Homo sapiens, RCM-1;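 note: growth inhibition of the RCM-1 line, determined with a cell viability readout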
Description: SANGER: Inhibition of human RCM-1 cell growth in a cell viability assay.

SK-MEL3 = format: functional, cell-based, Homo sapiens, SK-MEL-3; conditions: Homo sapiens, SK-MEL3;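 note: growth inhibition of human SK-MEL-3 cells, read out with a cell viability assay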
Description: SANGER: Inhibition of human SK-MEL-3 cell growth in a cell viability assay.

SK-NEP-1 = format: functional, cell-based; conditions: Homo sapiens;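 note: growth inhibition of human SK-NEP-1 cells, read out by a cell viability assay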
Description: SANGER: Inhibition of human SK-NEP-1 cell growth in a cell viability assay.

SW1088 = format: functional, cell-based, Homo sapiens; conditions: Homo sapiens, SW1088;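 note: growth inhibition of human SW1088 cells, read out by a cell viability assay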
Description: SANGER: Inhibition of human SW1088 cell growth in a cell viability assay.

T-24 = format: functional, cell-based, Homo sapiens; conditions: Homo sapiens, T-24;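 note: growth inhibition of T-24 cells, read out with a cell viability assay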
Description: SANGER: Inhibition of human T-24 cell growth in a cell viability assay.

T47D = format: functional, cell-based, Homo sapiens; conditions: Homo sapiens, T47D;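 note: growth inhibition of human T47D cells, measured with a cell viability assay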
Description: SANGER: Inhibition of human T47D cell growth in a cell viability assay.

A-427 = format: functional, cell-based, Homo sapiens; conditions: Homo sapiens, A-427;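 note: growth inhibition of human A-427 cells, read out by a cell viability assay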
Description: SANGER: Inhibition of human A427 cell growth in a cell viability assay.

AU565 = format: functional, cell-based, Homo sapiens; conditions: Homo sapiens, AU565;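 note: cell viability assay measuring growth inhibition of human AU565 cells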
Description: SANGER: Inhibition of human AU565 cell growth in a cell viability assay.

BB49-HNC = format: functional, cell-based, Homo sapiens; conditions: Homo sapiens, BB49-HNC;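 note: cell viability assay read-out, reported as inhibition of BB49-HNC cell growth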
Description: SANGER: Inhibition of human BB49-HNC cell growth in a cell viability assay.

BEN = format: functional, cell-based, Homo sapiens; conditions: Homo sapiens, BEN;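 note: growth inhibition of the BEN cell line, read out with a cell viability assay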
Description: SANGER: Inhibition of human BEN cell growth in a cell viability assay.

BFTC-909 = format: functional, cell-based, Homo sapiens; conditions: Homo sapiens, BFTC-909
Description: SANGER: Inhibition of human BFTC-909 cell growth in a cell viability assay.

BPH-1 = format: functional, cell-based, Homo sapiens; conditions: Homo sapiens, BPH-1;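 note: cell viability assay measuring growth inhibition of human BPH-1 cells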
Description: SANGER: Inhibition of human BPH-1 cell growth in a cell viability assay.

C8166 = format: functional, cell-based; conditions: Homo sapiens;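 note: growth inhibition of human C8166 cells measured by a cell viability assay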
Description: SANGER: Inhibition of human C8166 cell growth in a cell viability assay.

YKG-1 = format: functional, cell-based, Homo sapiens; conditions: Homo sapiens, YKG-1;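 note: cell growth inhibition, read out with a viability assay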
Description: SANGER: Inhibition of human YKG-1 cell growth in a cell viability assay.

Compound: Cc1cnc(-c2cnc(NCCNc3ccc(C#N)cn3)nc2-c2ccc(Cl)cc2Cl)[nH]1 [LADUVIGLUSIB]
- IC50 (COLO-792): > 2.56 µM
- IC50 (CP50-MEL-B): > 2.56 µM
- IC50 (CW-2): > 2.56 µM
- IC50 (Ca-Ski): > 2.56 µM
- IC50 (Calu-6): > 2.56 µM
- IC50 (Capan-2): > 2.56 µM
- IC50 (DOHH-2): > 2.56 µM
- IC50 (Detroit 562): > 2.56 µM
- IC50 (EW-24): > 2.56 µM
- IC50 (HCC1569): > 2.56 µM
- IC50 (HCC2218): > 2.56 µM
- IC50 (HCC 2998): > 2.56 µM
- IC50 (HD-MY-Z): > 2.56 µM
- IC50 (HO-1-N-1): > 2.56 µM
- IC50 (HOP-62): > 2.56 µM
- IC50 (HT-1080): > 2.56 µM
- IC50 (IGROV-1): > 2.56 µM
- IC50 (IST-SL1): > 2.56 µM
- IC50 (JAR): > 2.56 µM
- IC50 (KALS-1): > 2.56 µM
- IC50 (KINGS-1): > 2.56 µM
- IC50 (KS-1): > 2.56 µM
- IC50 (KYSE-510): > 2.56 µM
- IC50 (LB2518-MEL): > 2.56 µM
- IC50 (LS-411N): > 2.56 µM
- IC50 (LXF-289 cell line): > 2.56 µM
- IC50 (MLMA): > 2.56 µM
- IC50 (MZ7-mel): > 2.56 µM
- IC50 (Mo): > 2.56 µM
- IC50 (NCI-H1395): > 2.56 µM
- IC50 (NCI-H1623): > 2.56 µM
- IC50 (NCI-H1651): > 2.56 µM
- IC50 (NCI-H2126): > 2.56 µM
- IC50 (NCI-H661): > 2.56 µM
- IC50 (SNU-5): > 2.56 µM
- IC50 (OE19): > 2.56 µM
- IC50 (PC-3): > 2.56 µM
- IC50 (RCM-1): > 2.56 µM
- IC50 (SK-MEL3): > 2.56 µM
- IC50 (SK-NEP-1): > 2.56 µM
- IC50 (SW1088): > 2.56 µM
- IC50 (T-24): > 2.56 µM
- IC50 (T47D): > 2.56 µM
- IC50 (A-427): > 2.56 µM
- IC50 (AU565): > 2.56 µM
- IC50 (BB49-HNC): > 2.56 µM
- IC50 (BEN): > 2.56 µM
- IC50 (BFTC-909): > 2.56 µM
- IC50 (BPH-1): > 2.56 µM
- IC50 (C8166): > 2.56 µM
- IC50 (YKG-1): > 2.56 µM

Compound: C=CCc1cccc(/C=N/NC(=O)CN2CCN(Cc3ccccc3)CC2)c1O [PAC-1]
- IC50 (COLO-792): > 2.56 µM
- IC50 (CP50-MEL-B): > 2.56 µM
- IC50 (CW-2): > 2.56 µM
- IC50 (Ca-Ski): > 2.56 µM
- IC50 (Calu-6): > 2.56 µM
- IC50 (Capan-2): > 2.56 µM
- IC50 (DOHH-2): > 2.56 µM
- IC50 (Detroit 562): > 2.56 µM
- IC50 (EW-24): > 2.56 µM
- IC50 (HCC1569): > 2.56 µM
- IC50 (HCC2218): > 2.56 µM
- IC50 (HCC 2998): 1.18 µM
- IC50 (HD-MY-Z): > 2.56 µM
- IC50 (HO-1-N-1): > 2.56 µM
- IC50 (HOP-62): 2.54 µM
- IC50 (HT-1080): > 2.56 µM
- IC50 (IGROV-1): 1.34 µM
- IC50 (IST-SL1): > 2.56 µM
- IC50 (JAR): > 2.56 µM
- IC50 (KALS-1): > 2.56 µM
- IC50 (KINGS-1): > 2.56 µM
- IC50 (KS-1): > 2.56 µM
- IC50 (KYSE-510): 1.83 µM
- IC50 (LB2518-MEL): > 2.56 µM
- IC50 (LS-411N): 2.08 µM
- IC50 (LXF-289 cell line): > 2.56 µM
- IC50 (MLMA): > 2.56 µM
- IC50 (MZ7-mel): 2.56 µM
- IC50 (Mo): > 2.56 µM
- IC50 (NCI-H1395): > 2.56 µM
- IC50 (NCI-H1623): > 2.56 µM
- IC50 (NCI-H1651): > 2.56 µM
- IC50 (NCI-H2126): > 2.56 µM
- IC50 (NCI-H661): > 2.56 µM
- IC50 (SNU-5): > 2.56 µM
- IC50 (OE19): > 2.56 µM
- IC50 (PC-3): > 2.56 µM
- IC50 (RCM-1): > 2.56 µM
- IC50 (SK-MEL3): > 2.56 µM
- IC50 (SK-NEP-1): > 2.56 µM
- IC50 (SW1088): > 2.56 µM
- IC50 (T-24): > 2.56 µM
- IC50 (T47D): > 2.56 µM
- IC50 (A-427): > 2.56 µM
- IC50 (AU565): > 2.56 µM
- IC50 (BB49-HNC): > 2.56 µM
- IC50 (BEN): > 2.56 µM
- IC50 (BFTC-909): > 2.56 µM
- IC50 (BPH-1): > 2.56 µM
- IC50 (C8166): 1.22 µM
- IC50 (YKG-1): > 2.56 µM

Compound: O=C(NOCC1CC1)c1ccc(F)c(F)c1Nc1ccc(I)cc1Cl [CI-1040]
- IC50 (COLO-792): 2.84 µM
- IC50 (CP50-MEL-B): 0.173 µM
- IC50 (CW-2): > 10 µM
- IC50 (Ca-Ski): > 10 µM
- IC50 (Calu-6): 6.8 µM
- IC50 (Capan-2): > 10 µM
- IC50 (DOHH-2): 8.2 µM
- IC50 (Detroit 562): > 10 µM
- IC50 (EW-24): > 10 µM
- IC50 (HCC1569): > 10 µM
- IC50 (HCC2218): 2.65 µM
- IC50 (HCC 2998): 5.49 µM
- IC50 (HD-MY-Z): 1.57 µM
- IC50 (HO-1-N-1): 1.52 µM
- IC50 (HOP-62): > 10 µM
- IC50 (HT-1080): 3.02 µM
- IC50 (IGROV-1): 4.45 µM
- IC50 (IST-SL1): > 10 µM
- IC50 (JAR): > 10 µM
- IC50 (KALS-1): > 10 µM
- IC50 (KINGS-1): > 10 µM
- IC50 (KS-1): > 10 µM
- IC50 (KYSE-510): > 10 µM
- IC50 (LB2518-MEL): 0.716 µM
- IC50 (LS-411N): 1.41 µM
- IC50 (LXF-289 cell line): > 10 µM
- IC50 (MLMA): > 10 µM
- IC50 (MZ7-mel): 0.263 µM
- IC50 (Mo): > 10 µM
- IC50 (NCI-H1395): > 10 µM
- IC50 (NCI-H1623): > 10 µM
- IC50 (NCI-H1651): > 10 µM
- IC50 (NCI-H2126): 9.01 µM
- IC50 (NCI-H661): > 10 µM
- IC50 (SNU-5): 3.68 µM
- IC50 (OE19): > 10 µM
- IC50 (PC-3): > 10 µM
- IC50 (RCM-1): 1.24 µM
- IC50 (SK-MEL3): 3.85 µM
- IC50 (SK-NEP-1): > 10 µM
- IC50 (SW1088): 6.92 µM
- IC50 (T-24): 2.91 µM
- IC50 (T47D): > 10 µM
- IC50 (A-427): 3.6 µM
- IC50 (AU565): > 10 µM
- IC50 (BB49-HNC): > 10 µM
- IC50 (BEN): > 10 µM
- IC50 (BFTC-909): > 10 µM
- IC50 (BPH-1): 1.9 µM
- IC50 (C8166): > 10 µM
- IC50 (YKG-1): 9.75 µM
